Source: US12637453B2, “Pyrazolopyridine inhibitors of c-Jun-n-Terminal kinases and uses thereof” (Dana-Farber Cancer Institute, Inc., priority 2019, dated 2026)

Experiments:
Type in all cases: biochemical
JNK3 = JNK3 (Homo sapiens, UniProt P53779); experiment: IC50 assay for JNK kinase inhibition, JNK3
JNK1 = JNK1 (Homo sapiens, UniProt P45983); experiment: IC50 assay for JNK kinase inhibition, JNK1
JNK2 = JNK2 (Homo sapiens, UniProt P45984); experiment: IC50 assay for JNK kinase inhibition, JNK2
Chain of JNK2 (P45984 whole entry): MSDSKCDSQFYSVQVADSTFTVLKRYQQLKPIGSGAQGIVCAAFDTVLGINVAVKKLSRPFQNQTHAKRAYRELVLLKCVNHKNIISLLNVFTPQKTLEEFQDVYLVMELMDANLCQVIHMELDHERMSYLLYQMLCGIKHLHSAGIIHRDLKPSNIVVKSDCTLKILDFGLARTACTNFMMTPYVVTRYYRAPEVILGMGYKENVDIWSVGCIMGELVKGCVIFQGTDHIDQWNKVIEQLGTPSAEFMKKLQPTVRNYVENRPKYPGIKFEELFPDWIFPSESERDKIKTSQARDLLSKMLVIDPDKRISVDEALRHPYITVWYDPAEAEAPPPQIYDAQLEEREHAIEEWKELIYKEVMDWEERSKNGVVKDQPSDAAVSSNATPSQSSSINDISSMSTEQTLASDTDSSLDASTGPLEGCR

Chain of JNK3 (P53779 whole entry): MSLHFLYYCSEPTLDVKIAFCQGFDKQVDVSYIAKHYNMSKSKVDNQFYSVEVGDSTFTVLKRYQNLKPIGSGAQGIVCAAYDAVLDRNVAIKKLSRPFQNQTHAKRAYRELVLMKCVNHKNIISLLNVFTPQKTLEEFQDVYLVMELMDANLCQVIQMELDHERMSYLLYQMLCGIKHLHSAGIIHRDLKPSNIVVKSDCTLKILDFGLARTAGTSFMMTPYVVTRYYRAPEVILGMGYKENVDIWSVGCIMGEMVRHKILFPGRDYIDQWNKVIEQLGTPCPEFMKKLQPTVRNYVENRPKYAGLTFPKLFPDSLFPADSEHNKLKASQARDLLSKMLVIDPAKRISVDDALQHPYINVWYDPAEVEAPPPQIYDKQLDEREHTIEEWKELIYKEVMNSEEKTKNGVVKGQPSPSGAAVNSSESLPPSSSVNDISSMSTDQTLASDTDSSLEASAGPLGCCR
Chain of JNK1 (P45983 whole entry): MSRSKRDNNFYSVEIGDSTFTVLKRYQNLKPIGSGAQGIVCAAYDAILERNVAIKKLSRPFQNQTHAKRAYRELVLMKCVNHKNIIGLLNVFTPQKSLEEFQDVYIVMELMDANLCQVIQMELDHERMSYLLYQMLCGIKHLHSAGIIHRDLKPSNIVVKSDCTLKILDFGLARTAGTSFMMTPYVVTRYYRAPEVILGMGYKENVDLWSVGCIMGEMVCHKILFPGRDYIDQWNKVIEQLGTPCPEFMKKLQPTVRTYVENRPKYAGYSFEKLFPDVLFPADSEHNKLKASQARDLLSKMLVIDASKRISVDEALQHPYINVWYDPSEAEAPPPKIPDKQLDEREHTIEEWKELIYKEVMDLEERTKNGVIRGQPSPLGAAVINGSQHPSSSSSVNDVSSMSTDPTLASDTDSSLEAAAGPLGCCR

| Structure (SMILES) | IC50 (JNK3) | IC50 (JNK1) | IC50 (JNK2) |
| --- | --- | --- | --- |
| CN(C)C/C=C/C(=O)Nc1ccc(C(=O)N2CC3CC(Nc4nccc(-c5c(-c6ccccc6)nn6ccccc56)n4)C2C3)cc1 (stereo not drawn) [I-17, (E)-4-(dimethylamino)-N-(4-(6-((4-(2-phenylpyrazolo[1,5-a]pyridin-3-yl)pyrimidin-2-yl)amino)-2-azabicyclo[2.2.1]heptane-2-carbonyl)phenyl)but-2-enamide] | > 10000 nM | > 10000 nM | 7890 nM |
| CN(C)C/C=C/C(=O)Nc1ccc2c(N3CC[C@H](Nc4nccc(-c5c(-c6ccccc6)nn6ccccc56)n4)C3)nccc2c1 [I-20, (S,E)-4-(dimethylamino)-N-(1-(3-((4-(2-phenylpyrazolo[1,5-a]pyridin-3-yl)pyrimidin-2-yl)amino)pyrrolidin-1-yl)isoquinolin-6-yl)but-2-enamide] | 12 nM | 168 nM | 10 nM |
| C[C@H]1CN(C(=O)c2ccc(NC(=O)CCCN(C)C)cc2)C[C@H]1Nc1nccc(-c2c(-c3ccccc3)nn3ccccc23)n1 [I-27, 4-(dimethylamino)-N-(4-((3S,4S)-3-methyl-4-((4-(2-phenylpyrazolo[1,5-a]pyridin-3-yl)pyrimidin-2-yl)amino)pyrrolidine-1-carbonyl)phenyl)butanamide] | 790 nM | 2600 nM | 99.5 nM |
| CN(C)CCCC(=O)Nc1ccc(C(=O)N2CC[C@H](Nc3nccc(-c4c(-c5ccccc5)nn5ccccc45)n3)C2)cc1 [I-12, (S)-4-(dimethylamino)-N-(4-(3-((4-(2-phenylpyrazolo[1,5-a]pyridin-3-yl)pyrimidin-2-yl)amino)pyrrolidine-1-carbonyl)phenyl)butanamide] | 110 nM | 320 nM | 17.6 nM |
| CN(C)CCCC(=O)Nc1ccc(C(=O)N2CCCC[C@@H](Nc3nccc(-c4c(-c5ccccc5)nn5ccccc45)n3)C2)cc1 [I-10, (R)-4-(dimethylamino)-N-(4-(3-((4-(2-phenylpyrazolo[1,5-a]pyridin-3-yl)pyrimidin-2-yl)amino)azepane-1-carbonyl)phenyl)butanamide] | 48.1 nM | 243 nM | 7.88 nM |
| CN(C)CCCC(=O)Nc1ccc(C(=O)N2CCC[C@@H](Nc3nccc(-c4c(-c5ccccc5)nn5ccccc45)n3)C2)cc1 [I-6, (R)-4-(dimethylamino)-N-(4-(3-((4-(2-phenylpyrazolo[1,5-a]pyridin-3-yl)pyrimidin-2-yl)amino)piperidine-1-carbonyl)phenyl)butanamide] | 1090 nM | 278 nM | 40 nM |
| CN(C)C/C=C/C(=O)Nc1ccc(C(=O)NC2CCCC(Nc3nccc(-c4c(-c5ccccc5)nn5ccccc45)n3)C2)cc1 (stereo not drawn) [I-15, (E)-4-(4-(dimethylamino)but-2-enamido)-N-(3-((4-(2-phenylpyrazolo[1,5-a]pyridin-3-yl)pyrimidin-2-yl)amino)cyclohexyl)benzamide] | 40.3 nM | 481 nM | 38.9 nM |
| Nc1ccc(C(=O)N2CCC[C@H](Nc3nccc(-c4c(-c5ccccc5)nn5ccccc45)n3)C2)cc1 [I-4, (S)-(4-aminophenyl)(3-((4-(2-phenylpyrazolo[1,5-a]pyridin-3-yl)pyrimidin-2-yl)amino)piperidin-1-yl)methanone] | 22.5 nM | 21.4 nM | 2.88 nM |
| Cc1ccc2c(-c3ccnc(N[C@@H]4CN(C(=O)c5ccc(NC(=O)/C=C/CN(C)C)cc5)C[C@@H]4C)n3)c(-c3ccccc3)nn2c1 [I-31, (E)-4-(dimethylamino)-N-(4-((3S,4S)-3-methyl-4-((4-(6-methyl-2-phenylpyrazolo[1,5-a]pyridin-3-yl)pyrimidin-2-yl)amino)pyrrolidine-1-carbonyl)phenyl)but-2-enamide] | 274 nM | 2390 nM | 85.8 nM |
| COc1cccn2nc(-c3ccccc3)c(-c3ccnc(N[C@@H]4CN(C(=O)c5ccc(NC(=O)/C=C/CN(C)C)cc5)C[C@@H]4C)n3)c12 [I-32, (E)-4-(dimethylamino)-N-(4-((3S,4S)-3-((4-(4-methoxy-2-phenylpyrazolo[1,5-a]pyridin-3-yl)pyrimidin-2-yl)amino)-4-methylpyrrolidine-1-carbonyl)phenyl)but-2-enamide] | > 3330 nM | 1810 nM | 222 nM |
| C=CC(=O)Nc1ccc(C(=O)N2CCC[C@H](Nc3nccc(-c4c(-c5ccccc5)nn5ccccc45)n3)C2)cc1 [I-3, (S)-N-(4-(3-((4-(2-phenylpyrazolo[1,5-a]pyridin-3-yl)pyrimidin-2-yl)amino)piperidine-1-carbonyl)phenyl)acrylamide] | 16.2 nM | 26 nM | 5.67 nM |

The remaining lines, values ahead:

| IC50 (JNK3) | IC50 (JNK1) | IC50 (JNK2) | Structure (SMILES) |
| --- | --- | --- | --- |
| 3.87 nM | 85 nM | 5.57 nM | CN(C)C/C=C/C(=O)Nc1ccc(C(=O)N2CC[C@H](Nc3nccc(-c4c(-c5ccc(F)cc5)nn5ccccc45)n3)C2)cc1 [I-22, (S,E)-4-(dimethylamino)-N-(4-(3-((4-(2-(4-fluorophenyl)pyrazolo[1,5-a]pyridin-3-yl)pyrimidin-2-yl)amino)pyrrolidine-1-carbonyl)phenyl)but-2-enamide] |
| 20 nM | 308 nM | 31 nM | CN(C)C/C=C/C(=O)Nc1ccc(C(=O)N2CCCC[C@H](Nc3nccc(-c4c(-c5ccccc5)nn5ccccc45)n3)C2)cc1 [I-13, (S,E)-4-(dimethylamino)-N-(4-(3-((4-(2-phenylpyrazolo[1,5-a]pyridin-3-yl)pyrimidin-2-yl)amino)azepane-1-carbonyl)phenyl)but-2-enamide] |
| 51.4 nM | 152 nM | 4.91 nM | CN(C)C/C=C/C(=O)Nc1ccc(C(=O)N2CC[C@H](Nc3nccc(-c4c(-c5ccccc5)nn5ccccc45)n3)C2)cc1 [I-11, (S,E)-4-(dimethylamino)-N-(4-(3-((4-(2-phenylpyrazolo[1,5-a]pyridin-3-yl)pyrimidin-2-yl)amino)pyrrolidine-1-carbonyl)phenyl)but-2-enamide] |
| 25 nM | 12.5 nM | 2.75 nM | CN(C)C/C=C/C(=O)Nc1ccc(C(=O)N2CC[C@@H](Nc3nccc(-c4c(-c5ccccc5)nn5ccccc45)n3)C2)cc1 [I-7, (R,E)-4-(dimethylamino)-N-(4-(3-((4-(2-phenylpyrazolo[1,5-a]pyridin-3-yl)pyrimidin-2-yl)amino)pyrrolidine-1-carbonyl)phenyl)but-2-enamide] |
| 21.4 nM | 73.4 nM | 5.59 nM | CN(C)CCCC(=O)Nc1ccc(C(=O)N2CC[C@@H](Nc3nccc(-c4c(-c5ccccc5)nn5ccccc45)n3)C2)cc1 [I-8, (R)-4-(dimethylamino)-N-(4-(3-((4-(2-phenylpyrazolo[1,5-a]pyridin-3-yl)pyrimidin-2-yl)amino)pyrrolidine-1-carbonyl)phenyl)butanamide] |
| 18.3 nM | 90.7 nM | 3.92 nM | CN(C)C/C=C/C(=O)Nc1ccc(C(=O)N2CC[C@H](Nc3nccc(-c4c(-c5cccc(Cl)c5)nn5ccccc45)n3)C2)cc1 [I-25, (S,E)-N-(4-(3-((4-(2-(3-chlorophenyl)pyrazolo[1,5-a]pyridin-3-yl)pyrimidin-2-yl)amino)pyrrolidine-1-carbonyl)phenyl)-4-(dimethylamino)but-2-enamide] |
| 2.36 nM | 44.7 nM | 3.65 nM | CN(C)C/C=C/C(=O)Nc1ccc(C(=O)N2CCC[C@H](Nc3nccc(-c4c(-c5ccccc5)nn5ccccc45)n3)C2)cc1 [I-1, (S,E)-4-(dimethylamino)-N-(4-(3-((4-(2-phenylpyrazolo[1,5-a]pyridin-3-yl)pyrimidin-2-yl)amino)piperidine-1-carbonyl)phenyl)but-2-enamide] |
| 359 nM | 3360 nM | 585 nM | CN(C)C/C=C/C(=O)Nc1ccc(C(=O)N2CC[C@H](Nc3ncc(Cl)c(-c4c(-c5ccccc5)nn5ccccc45)n3)C2)cc1 [I-21, (S,E)-N-(4-(3-((5-chloro-4-(2-phenylpyrazolo[1,5-a]pyridin-3-yl)pyrimidin-2-yl)amino)pyrrolidine-1-carbonyl)phenyl)-4-(dimethylamino)but-2-enamide] |
| 5.53 nM | 18.4 nM | 0.952 nM | Cc1ccc2c(-c3ccnc(N[C@H]4CCN(C(=O)c5ccc(NC(=O)/C=C/CN(C)C)cc5)C4)n3)c(-c3ccccc3)nn2c1 [I-24, (S,E)-4-(dimethylamino)-N-(4-(3-((4-(6-methyl-2-phenylpyrazolo[1,5-a]pyridin-3-yl)pyrimidin-2-yl)amino)pyrrolidine-1-carbonyl)phenyl)but-2-enamide] |
| 10.9 nM | 37.6 nM | 6.94 nM | CN(C)C/C=C/C(=O)Nc1cccc(C(=O)N2CC[C@H](Nc3nccc(-c4c(-c5ccccc5)nn5ccccc45)n3)C2)c1 [I-16, (S,E)-4-(dimethylamino)-N-(3-(3-((4-(2-phenylpyrazolo[1,5-a]pyridin-3-yl)pyrimidin-2-yl)amino)pyrrolidine-1-carbonyl)phenyl)but-2-enamide] |
| 10.3 nM | 8.9 nM | 67.6 nM | CN(C)C/C=C/C(=O)Nc1ccc(C(=O)N2CC[C@H](Nc3nccc(-c4c(-c5ccc(Cl)cc5)nn5ccccc45)n3)C2)cc1 [I-26, (S,E)-N-(4-(3-((4-(2-(4-chlorophenyl)pyrazolo[1,5-a]pyridin-3-yl)pyrimidin-2-yl)amino)pyrrolidine-1-carbonyl)phenyl)-4-(dimethylamino)but-2-enamide] |
| 96.1 nM | 403 nM | 15.9 nM | CN(C)C/C=C/C(=O)Nc1ccc(C(=O)N2CCCC[C@@H](Nc3nccc(-c4c(-c5ccccc5)nn5ccccc45)n3)C2)cc1 [I-9, (R,E)-4-(dimethylamino)-N-(4-(3-((4-(2-phenylpyrazolo[1,5-a]pyridin-3-yl)pyrimidin-2-yl)amino)azepane-1-carbonyl)phenyl)but-2-enamide] |
| 396 nM | 1140 nM | 142 nM | Cc1cccn2nc(-c3ccccc3)c(-c3ccnc(N[C@H]4CCN(C(=O)c5ccc(NC(=O)/C=C/CN(C)C)cc5)C4)n3)c12 [I-23, (S,E)-4-(dimethylamino)-N-(4-(3-((4-(4-methyl-2-phenylpyrazolo[1,5-a]pyridin-3-yl)pyrimidin-2-yl)amino)pyrrolidine-1-carbonyl)phenyl)but-2-enamide] |
